Several values for one entry are separate records, joined by “and”; a condition that tells them apart may be missing. Equal values may be shown once.
Assays:
[1] = molecular target: Induced myeloid leukemia cell differentiation protein Mcl-1 (Homo sapiens, UniProt Q07820)
Description: Inhibition of FITC-Bak-BH3/FITC-Bim-BH3 binding to MCL1 (172 to 327 residues) (unknown origin) expressed in Escherichia coli BL21 CodonPlus (DE3) RIL after 1.5 hrs by fluorescence polarization assay

physchem = conditions: PAMPA
Description: Passive permeability of the compound by PAMPA

NCI-H929 [2] = assay: cells; conditions: Homo sapiens, NCI-H929, 72 h
in vitro = conditions: human, K562 cells
[3] = molecular target: Apoptosis regulator Bcl-2 (Homo sapiens, UniProt P10415)
Description: Inhibition of FITC-Bak-BH3 binding to Bcl2 (unknown origin) after 1.5 hrs by fluorescence polarization assay

Bcl-2-like protein 1 = Bcl-2-like protein 1 (Homo sapiens, UniProt Q07817)
Description: Inhibition of FITC-Bak-BH3 binding to Bcl-XL (unknown origin) after 1.5 hrs by fluorescence polarization assay

cells [4] = conditions: Homo sapiens, ALMC1, 72 h
cells [5] = conditions: Homo sapiens, ALMC2, 72 h
OPM-2 = assay: cells; conditions: Homo sapiens, OPM-2, 72 h
MV4-11 = assay: cells; conditions: Homo sapiens, MV4-11, 72 h
NCI-H929 [6] = tested on: NCI-H929

Sequence of Apoptosis regulator Bcl-2 (P10415 whole entry): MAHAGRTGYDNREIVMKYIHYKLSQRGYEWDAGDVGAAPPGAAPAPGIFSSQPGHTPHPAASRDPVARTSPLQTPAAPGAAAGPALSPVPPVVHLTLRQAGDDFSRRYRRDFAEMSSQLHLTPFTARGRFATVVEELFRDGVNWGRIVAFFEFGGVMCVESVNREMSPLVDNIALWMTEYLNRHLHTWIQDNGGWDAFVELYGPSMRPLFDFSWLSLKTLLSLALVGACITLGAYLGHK
Sequence of Bcl-2-like protein 1 (Q07817 whole entry): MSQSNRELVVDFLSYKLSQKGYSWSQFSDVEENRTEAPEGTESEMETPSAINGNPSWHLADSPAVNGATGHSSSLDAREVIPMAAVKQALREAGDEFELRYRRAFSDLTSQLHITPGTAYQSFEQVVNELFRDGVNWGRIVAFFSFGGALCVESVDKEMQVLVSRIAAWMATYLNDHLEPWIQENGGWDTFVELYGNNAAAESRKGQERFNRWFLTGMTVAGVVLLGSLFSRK
Sequence of Induced myeloid leukemia cell differentiation protein Mcl-1 (Q07820 whole entry): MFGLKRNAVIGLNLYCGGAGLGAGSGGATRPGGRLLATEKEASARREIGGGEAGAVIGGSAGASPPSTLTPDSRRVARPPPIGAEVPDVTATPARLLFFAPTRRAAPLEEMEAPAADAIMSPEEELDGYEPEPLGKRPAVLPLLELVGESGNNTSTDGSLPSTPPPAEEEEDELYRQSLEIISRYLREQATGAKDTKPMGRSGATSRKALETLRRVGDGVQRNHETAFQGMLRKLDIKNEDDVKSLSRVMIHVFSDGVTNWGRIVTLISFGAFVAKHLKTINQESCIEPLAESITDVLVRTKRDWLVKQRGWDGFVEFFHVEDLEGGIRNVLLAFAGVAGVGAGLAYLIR

Row | Compound | Papp (physchem) [×10⁻⁶ cm/s] | GI50 (NCI-H929 [2]) [µM] | GI50 at 72 h (in vitro) [µM] | Ki [3] [µM] | Ki (Bcl-2-like protein 1) [µM] | further results
1 | Cc1cc(OCCCc2c(C(=O)NCC(=O)O)[nH]c3ccccc23)cc(C)c1Cl | – | – | – | – | – | Ki [1]: 0.62 µM
2 | Cc1cc(OCCCc2c3n(c4c(-c5c(C)nn(C)c5C)c(Cl)ccc24)CCCN(c2cc(C(=O)O)cc4c2OCO4)C3=O)cc(C)c1Cl | 63 | 2.3 | > 12.5 | 0.55 | > 36 | –
3 | Cc1cc(OCCCc2c3n(c4c(-c5c(C)nn(C)c5C)c(Cl)ccc24)CCCN(c2cn(C)c4c(C(=O)O)cccc24)C3=O)cc(C)c1Cl | – | 1 | > 9.2 | 0.31 | 21 | –
4 | Cc1cc(OCCCc2c3n(c4c(-c5c(C)nn(C)c5C)c(Cl)ccc24)CCCN(c2cccc4c(C(=O)O)cccc24)C3=O)cc(C)c1Cl | 4.4 | 1 | 5.7 | 0.25 | 11 | –
5 | Cc1cc(OCCCc2c3n(c4c(-c5c(C)nn(C)c5C)c(Cl)ccc24)CCCN(c2cc(C(=O)O)c4ccn(C)c4c2)C3=O)cc(C)c1Cl | 21 | 1.4 to 1.6 | 11 to 11.5 | 0.58 | 19 | GI50 (cells [4]): 1.5 µM; GI50 (cells [5]): 3.2 µM; GI50 (OPM-2): 1.4 µM; GI50 (MV4-11): 0.77 µM
6 | Cc1cc(OCCCc2c3n(c4c(-c5c(C)nn(C)c5C)cc(Cl)cc24)CCCN(c2cc(C(=O)O)c4ccn(C)c4c2)C3=O)cc(C)c1Cl | – | 6 | 7.7 | – | – | Ki [1]: 0.094 µM; GI50 (cells [4]): 6.6 µM; GI50 (cells [5]): 9.9 µM; GI50 (OPM-2): 5.7 µM; GI50 (MV4-11): 6.2 µM
7 | Cc1cc(OCCCc2c3n(c4c(-c5c(C)nn(C)c5C)c(Cl)ccc24)CCCN(c2ccc(C(=O)O)c4cccnc24)C3=O)cc(C)c1Cl | 122 | 3.3 | 6.2 | 0.49 | > 36 | –
8 | Cc1cc(OCCCc2c3n(c4c(-c5c(C)nn(C)c5C)c(Cl)ccc24)CCCN(c2cc(C(=O)O)cc4ccn(C)c24)C3=O)cc(C)c1Cl | – | 6.1 | > 12.5 | 0.52 | > 36 | –
9 | Cc1cc(OCCCc2c3n(c4c(-c5c(C)nn(C)c5C)cc(Cl)cc24)CCCN(c2cc(C(=O)O)cc4c2ccn4C)C3=O)cc(C)c1Cl | – | 10 | 10 | – | – | Ki [1]: 0.13 µM; GI50 (cells [4]): 7.7 µM; GI50 (cells [5]): 12 µM; GI50 (OPM-2): 8.9 µM; GI50 (MV4-11): 9.1 µM
10 | Cc1cc(OCCCc2c3n(c4c(-c5c(C)nn(C)c5C)c(Cl)ccc24)CCCN(c2cn(C)c4ccc(C(=O)O)cc24)C3=O)cc(C)c1Cl | – | 0.3 | > 12.5 | 0.56 | 26 | GI50 (NCI-H929 [6]): 0.28 µM and 0.33 µM
11 | Cc1cc(OCCCc2c3n(c4c(-c5c(C)nn(C)c5C)c(Cl)ccc24)CCCN(c2ccc(C(=O)O)c4ccn(C)c24)C3=O)cc(C)c1Cl | 4.8 | 5.7 | > 12.5 | 0.44 | > 36 | –
12 | Cc1cc(OCCCc2c3n(c4c(-c5c(C)nn(C)c5C)c(Cl)ccc24)CCCN(c2cn(C)c4cc(C(=O)O)ccc24)C3=O)cc(C)c1Cl | – | 0.33 | 5.8 | 0.53 | > 36 | –
13 | Cc1cc(OCCCc2c(C(=O)NCCC(=O)O)[nH]c3ccccc23)cc(C)c1Cl | – | – | – | – | – | Ki [1]: 0.57 µM
14 | Cc1cc(OCCCc2c(C(=O)NCc3ccc(C(=O)O)o3)[nH]c3ccccc23)cc(C)c1Cl | – | – | – | – | – | Ki [1]: 0.069 µM
15 | COC(=O)CNC(=O)c1[nH]c2ccccc2c1CCCOc1cc(C)c(Cl)c(C)c1 | – | – | – | – | – | Ki [1]: 3.2 µM

Further lines, with some results ahead:

Row | Papp (physchem) [×10⁻⁶ cm/s] | GI50 (NCI-H929 [2]) [µM] | GI50 at 72 h (in vitro) [µM] | Ki [3] [µM] | Ki (Bcl-2-like protein 1) [µM] | Compound | further results
16 | 2.3 | – | – | – | – | Cc1cc(OCCCc2c(C(=O)Nc3ccc(C(=O)O)o3)[nH]c3c(-c4c(C)nn(C)c4C)c(Cl)ccc23)cc(C)c1Cl | –
17 | < 1.6 | – | – | – | – | Cc1cc(OCCCc2c(C(=O)Nc3cccc(C(=O)O)n3)[nH]c3c(-c4c(C)nn(C)c4C)c(Cl)ccc23)cc(C)c1Cl | –
18 | < 3.3 | – | – | – | – | Cc1cc(OCCCc2c(C(=O)Nc3cc(C(=O)O)ccn3)[nH]c3c(-c4c(C)nn(C)c4C)c(Cl)ccc23)cc(C)c1Cl | –
19 | 1.2 | – | – | – | – | Cc1cc(OCCCc2c(C(=O)Nc3ccc(C(=O)O)cc3)[nH]c3c(-c4c(C)nn(C)c4C)c(Cl)ccc23)cc(C)c1Cl | –
20 | < 7.6 | – | – | – | – | Cc1cc(OCCCc2c(C(=O)NCc3cccc(C(=O)O)c3)[nH]c3c(-c4c(C)nn(C)c4C)c(Cl)ccc23)cc(C)c1Cl | –
21 | < 1 | – | – | – | – | Cc1cc(OCCCc2c(C(=O)Nc3cncc(C(=O)O)c3)[nH]c3c(-c4c(C)nn(C)c4C)c(Cl)ccc23)cc(C)c1Cl | –
22 | < 2.3 | – | – | – | – | Cc1cc(OCCCc2c(C(=O)Nc3ccc(C(=O)O)cn3)[nH]c3c(-c4c(C)nn(C)c4C)c(Cl)ccc23)cc(C)c1Cl | –
23 | < 1.2 | – | – | – | – | Cc1cc(OCCCc2c(C(=O)NCc3cc(C(=O)O)ccn3)[nH]c3c(-c4c(C)nn(C)c4C)cccc23)cc(C)c1Cl | –
24 | 143 | – | – | – | – | Cc1cc(OCCCc2c3n(c4c(-c5c(C)nn(C)c5C)c(Cl)ccc24)CCCN(Cc2cccc(C(=O)O)c2)C3=O)cc(C)c1Cl | –
25 | 307 | – | – | – | – | Cc1cc(OCCCc2c3n(c4c(-c5c(C)nn(C)c5C)c(Cl)ccc24)CCCN(c2cccc(C(=O)O)c2)C3=O)cc(C)c1Cl | –
